Patent US8772463B2, “Fluorescent dye-labeled glucose bioprobe, synthesis method and usage thereof” (SNU R&DB Foundation, priority 2007, dated 2014)

Key:
A549 cells [1] = assay: Probe uptake by A549 cells, inverted fluorescent microscope (α/β anomers, alanine, 2-NBDG comparison); assay type: cell-based, human
Procedure: (§1) 1×10^4 cells were cultured on a Lab-Tek glass chamber slide (Nalge Nunc International, Naperville, Ind., USA) in 35 mm cell culture dish. After 24 h, the cells were treated for each experimental purpose. Then, the medium was replaced with RPMI 1640 medium containing 12.5 μM of Cy3-Glc-α. The cells were exposed to Cy3-Glc-α for 40 min, then washed with PBS 3 times. Finally, the glass chamber slide was taken from culture dish and loaded on the fluorescence microscope (Axiovert 200, Carl Zeiss, Germany). Fluorescence images of 35-50 cells were taken by CCD camera (Axiocam MRm, Germany) and fluorescence intensity of each cell was measured by Axiovision (program for data analysis). An area as ROIs (regions of interest) which contains a cell in phase-contrast image was drawn using Axiovision. Axiovision analyzed CCD camera images and provided the digitized mean of fluorescence intensity in the ROIs that the present inventors had established. The present inventors subtracted the background intensity from the fluorescence intensity to get the fluorescence intensity value that a cell contained. With the method described above, the present inventors digitized fluorescence intensity and performed various experiments.
To confirm the above hypothesis, real-time uptake of Cy3-Glc-α was measured, and the results were compared to those of Cy3-Glc-β by live imaging of A549 cells by using inverted fluorescent microscope. […] This led the present inventors to the conclusion that the stereochemistry at the C-1 anomeric position definitely influences the efficiency of mimicking glucose, and this might be due to the binding orientation of D-glucose in GLUTs [P. W. Hruz, M. M. Mueckler, Mole. Memb. Biol. 2001, 18, 183-193].
The cellular uptake of 2-NBDG was not detected under identical experimental conditions used for Cy3-Glc-α. […] To achieve the fluorescence intensity with 2-NBDG to 80% that of Cy3-Glc-α, a 10 fold increase in 2-NBDG concentration and a 20 fold increase in the lens exposure time in D-glucose-depleted medium were needed.
In addition, the cellular uptake of 2-NBDG in normal media (containing 10 mM D-glucose) was extremely low (>60% uptake reduction in normal media) and was hardly detected using fluorescent based imaging methods [R. G. O'Neil, L. Wu, N. Mullani, Mol. Imaging Biol. 2005, 7, 388-392]. 2-NBDG was detectable only in glucose-depleted media, and this means a critical limitation of bioapplication of 2-NBDG in the biologically significant environments. In comparison with 2-NBDG, the reduction of Cy3-Glc-α uptake in glucose-containing media was only 5% compared to that in glucose-depleted media (FIG. 18). Therefore, it was confirmed that Cy3-Glc-α was capable of being applied to a bioassay system regardless of glucose starvation.

NIH/3T3 cells = assay: Cy3-Glc-α uptake in normal cells versus cancer cells, inverted fluorescent microscope; assay type: cell-based, murine
Procedure: as §1
(2) Based on this observation, further studies in bioimaging and bioapplication were performed only with the α anomer as choice of the bioprobe. […]

A549 cells [2] = assay: Direct competition of Cy3-Glc-α uptake with D-glucose / L-glucose; assay type: cell-based, human; settings: 37° C.
Procedure: as §1, with “experiments. […]” for “experiments.”

A549 cells [3] = assay: Fluorescence imaging analysis of competitive probe uptake; assay type: cell-based, human; settings: probe 12.5 μM
Procedure: Also, NIH/3T3, A549, C2C12 and 3T3/L1 cells, each having a population of 4×10^4 cells, were cultured on 35 mm cell culture dishes (BD Falcon™ Cell Culture Dish; BD Bioscience, CA, USA). Two days later, the cell culture medium was replaced with a glucose-depleted medium (DMEM, glucose free, GIBCO) supplemented with 0 mM, 11 mM or 55 mM D-glucose and 10 μM GB2-Cy3. After incubation at 37° C. for 30 min, the cells on the cover slips in the 35-mm cell culture dishes were washed twice with cold PBS and the cover slips were mounted on the caster of a fluorescence microscope (Olympus IX71). During observation under the fluorescence microscope, the cells were maintained at 37° C. in the chamber. Fluorescence images of 35-50 cells were taken by CCD camera (Axiocam MRm, Germany) and each cell was measured for fluorescence intensity using the image data analysis program Image-Pro® Plus (MediaCybernetics, USA). As ROIs (regions of interest), areas which encompassed cells within phase-contrast images were drawn using Image-Pro® Plus. Image-Pro® Plus analyzed CCD camera images to produce the digitized mean of fluorescence intensity within the ROIs that the present inventors had established. The background intensity was subtracted from the detected fluorescence intensity to give the fluorescence intensity value that a cell contained. In this manner, the fluorescence intensity was digitized for performing various experiments.
NIH/3T3 and A549 cells were cultured on microscope cover glasses in 35 mm cell culture dishes and subjected to fluorescence imaging analysis according to the protocol.

C[N+]1=C(/C=C/C=C2/N(CCCCC(=O)NCCOCCOCCNCCOC3OC(CO)C(O)C(O)C3O)c3ccccc3C2(C)C)C(C)(C)c2ccccc21 [Cy3-Glc-α, [2-(N-Cy3-3,6-dioxaoctane-1,8-diaminoethyl)]-α-D-glucose]
uptake efficiency with or without alanine (osmotic pressure) (A549 cells [1]; 55 mM alanine in media): no difference in the uptake efficiency
reduction of uptake in glucose-containing media compared to glucose-depleted media (A549 cells [1]; A549 cells): 5%
uptake of Cy3-Glc-α superior to that of Cy3-Glc-β (A549 cells [1]; A549 cells, live imaging): 40%
Cy3-Glc-α uptake in NIH/3T3 relative to that of A549 cells (NIH/3T3 cells): 30%
uptake versus L-glucose in the medium (A549 cells [2]; 50 mM L-glucose): not influenced by the concentration of L-glucose
uptake versus concentration of D-glucose in the medium (A549 cells [2]; RPMI 1640 lacking glucose, 10 mM or 50 mM D-glucose): decreased as the concentration of D-glucose in the medium increased
cellular uptake versus D-glucose concentration (A549 cells [3]): decreased in the cellular uptake of the glucose analogues in D-glucose dose-dependent manners
change in the fluorescent intensity of ROIs when D-glucose changed from 10 mM to 55 mM (A549 cells [3]): approximately 5%
fluorescent intensity of treated cells, GB2-Cy3 normalized to 100 (A549 cells [3]): 4
